Laboratory results published in PMC6689897, “Drugging an undruggable pocket on KRAS” (Proceedings of the National Academy of Sciences of the …, 2019).
Values joined by “and” are separate entries in the source; they are usually repeats but may differ in a detail not shown here. Identical values can stand only once.

Key:
[1] = target: T1, GTP-KRASG12D::CRAF (Homo sapiens, UniProt P01116, G12D); assay: Alpha Screen PPI assay; type: biochemical; details: duplicate
T1 construct: KRAS (G12D) 1-169, N-terminal 6His-tag, C-terminal avi-tag was from Xtal; 6His-tag (N); purchased Xtal BioStructures, Inc
Method: (§1) 221 Measurements of various protein–protein interactions were performed using the Alpha
(§2) 222 Screen technology developed by Perkin Elmer. Recombinant RAS proteins (H-, N-, K-
(§3) 223 RAS variants; all KRAS variants are based on KRAS isoform 4B (uniprot id P01116-2);
(§4) 224 KRAS (G12D) 1-169, N-terminal 6His-tag, C-terminal avi-tag was from Xtal
(§5) 225 BioStructures, Inc., KRAS (G12C) 1-169, C-terminal avi-tag, biotinylated, mutations:
(§6) 226 C51S, C80L, C118S, NRAS(wt) 1-172, C-terminal avi-tag, biotinylated; HRAS(wt) 1-
(§7) 227 166, C-terminal avi-tag, biotinylated). Biotinylation was performed in vitro with
(§8) 228 recombinant BirA biotin-protein ligase as recommended by the manufacturer (Avidity
(§9) 229 LLC, Aurora, Colorado, USA). Interacting proteins such as SOS1 (564-1049, N-terminal
(§10) 230 GST-tag, TEV cleavage site), cRaf (1-303, N-terminal GST-tag, TEV cleavage site) and
(§11) 231 PI3KA- RBD (160-317, N-term-HIS_GST-tag) were expressed as glutathione S
(§12) 232 transferase (GST) fusions. Accordingly, the Alpha Screen beads were glutathione coated
(§13) 233 Alpha Lisa acceptor beads (Perkin Elmer AL 109 R) and Alpha Screen Streptavidin
(§14) 234 conjugated donor beads (Perkin Elmer 6760002L). Nucleotides were purchased from
(§15) 236 interaction assays were carried out in PBS, containing 0.1% bovine serum albumin,
(§16) 237 0,05% Tween-20 and 10 µM of the corresponding nucleotide. Assays were carried out in
(§17) 238 white ProxiPlate-384 Plus plates (Perkin Elmer #6008280) in a final volume of 20 µL. In
(§18) 239 brief, biotinylated RAS proteins (10 nM final concentration) and GST-SOS1, GST-PI3K
(§19) 240 or GST-CRAF (10 nM final) were mixed with glutathione acceptor beads (5 µg/mL final
(§20) 241 concentration) in buffer, containing the corresponding nucleotides (GDP or GTP for
(§21) 242 assays containing SOS1, only GTP for interaction assays containing PI3K or CRAF) and
(§22) 243 were incubated for 30 min at room temperature. After addition of streptavidin donor
(§23) 244 beads (5 µg/mL final concentration) under green light, the mixture was further incubated
(§24) 245 for 60 min in the dark at room temperature. Single oxygen induced fluorescence was
(§25) 246 measured at an Enspire multimode plate reader (Perkin Elmer) according to the
(§26) 247 manufacturer’s recommendations. […]

[2] = target: T2, GTP-KRASG12D::PI3Kα (Homo sapiens, UniProt P01116, G12D); assay: Alpha Screen PPI assay; type: biochemical; details: duplicate, read-out: IC50 GTP-KRASG12D::PI3K
T2 construct: KRAS (G12D) 1-169, N-terminal 6His-tag, C-terminal avi-tag was from Xtal; 6His-tag (N); purchased Xtal BioStructures, Inc
Method: as §1, §2, §3, §4, §5, §6, §7, §8, §9, §10, §11, §12, §13, §14, §15, §16, §17, §18, §19, §20, §21, §22, §23, §24, §25, §26

[3] = target: T3, GTP-KRASwt::CRAF (Homo sapiens, UniProt P01116); assay: Alpha Screen PPI assay; type: biochemical; details: Alpha Screen, duplicate
T3 construct: biotin (attachment tag not described)
Method: as §1, §2, §3, §4, §5, §6, §7, §8, §9, §10, §11, §12, §13, §14, §15, §16, §17, §18, §19, §20, §21, §22, §23, §24, §25, §26

[4] = test system: GTP-KRASwt::CRAF; assay: Alpha Screen PPI assay; type: biochemical, human
Method: as §1, §2, §3, §4, §5, §6, §7, §8, §9, §10, §11, §12, §13, §14, §15, §16, §17, §18, §19, §20, §21, §22, §23, §24, §25, §26

[5] = target: T4, GTP-KRASwt::PI3Kα (Homo sapiens, UniProt P01116); assay: Alpha Screen PPI assay; type: biochemical; details: duplicate, read-out: IC50 GTP-KRASwt ::PI3K
T4 construct: biotin (attachment tag not described)
Method: as §1, §2, §3, §4, §5, §6, §7, §8, §9, §10, §11, §12, §13, §14, §15, §16, §17, §18, §19, §20, §21, §22, §23, §24, §25, §26

[6] = target: T5, GTP-KRASwt::SOS1 (Homo sapiens, UniProt P01116); assay: Alpha Screen PPI assay; type: biochemical; details: duplicate
T5 construct: biotin (attachment tag not described)
Method: as §1, §2, §3, §4, §5, §6, §7, §8, §9, §10, §11, §12, §13, §14, §15, §16, §17, §18, §19, §20, §21, §22, §23, §24, §25, §26

[7] = target: KRAS (Homo sapiens, UniProt P01116, G12D); assay: Alpha Screen PPI assays, summary over KRAS interactions (SOS1, CRAF, PI3Kα); type: biochemical; details: interaction not given
Excerpt: Using biochemical assays, we investigated whether 1 inhibited 3 of the 4 PPIs important for KRAS cycling (Fig. 5 A, i–iii). Namely, 1) GDP-KRAS interaction with the catalytic site of SOS ([33]), 2) GTP-KRAS interaction with the allosteric site of SOS ([34]), and 3) GTP-KRAS interaction with downstream effectors (CRAF and PI3Kα). We were unable to establish a biochemical assay for the fourth intervention point, namely, 4) GTP-KRAS interaction with its GAPs (Fig. 5 A, iv). As a reference compound for these assays, we used the KRAS^G12C-specific covalent inhibitor ARS-1620 ([35]). Compound 1 inhibited all 3 RAS cycle intervention points (1 to 3) in a dose-dependent manner (Fig. 5 B–E) in the range of 100 to 770 nM (SI Appendix, Table S6).
(§27) 217 The coordinates and structure factors of the structures have been deposited at the
(§28) 218 Protein Data Bank with the accession codes PDB Code 6GJ5, 6GJ6, 6GJ7, 6GJ8.
as §1, §2, §3, §4, §5, §6, §7, §8, §9, §10
(§29) 231 PI3KA- RBD (160-317, N-term-HIS_GST-tag) were expressed as glutathione S […]
as §24, §25
(§30) 247 manufacturer’s recommendations. Data were analyzed using the GraphPad Prism data […]

[8] = test system: 4 BRAF(v600E) cell lines (A375, RKO, Colo 201, SK-MEL-28); assay: pERK modulation in BRAF V600E control cell lines; type: cell-based, human
Method: as §27, §28, §1, §2, §3, §4, §5, §6, §7
228 recombinant BirA biotin-protein ligase as recommended by the manufacturer (Avidity […]
as §29, §24, §25, §30
313 added according to manufacturer’s instructions. Fluorescence intensity was determined
314 using a fluorescence reader (2030 VICTOR X5, Perkin Elmer). […]
319 MAPK pathway signaling (pERK, pAKT quantification) […]

[9] = target: GCP-KRAS^G12D,C118S (Homo sapiens, UniProt P01116, C118S/G12D); assay: NMR KD, T35 construct (G12D, C118S), GCP-bound; type: binding; details: versus 17

Row | SMILES | IC50 [1] | IC50 [2] [nM] | IC50 [3] [nM] | selectivity of inhibition biochemically, KRAS^wt versus KRAS^G12C binding to CRAF [4] [fold] | IC50 [5] [nM] | IC50 [6] [nM] | IC50 [7] [nM] | inhibition of pERK [8] | more potent than nonphenolic matched molecular pair 17 [9] [fold]
1 | Cn1cnc(Cn2ccc3ccc(CNCc4[nH]c5ccccc5c4[C@H]4NC(=O)c5ccc(O)cc54)cc32)c1 [Compound 1] | 770 nM and 180 nM | 500 | 740 | 4 | 250 | 490 | 450 | no inhibition of pERK | –
2 | CN(C)Cc1[nH]c2ccccc2c1[C@H]1NC(=O)c2ccc(O)cc21 [Compound 18] | – | – | – | – | – | – | – | – | 6
